Results published in patent US7618975B2, “4-arylamino-quinazolines and analogs as activators of caspases and inducers of apoptosis and the use thereof” (Myriad Pharmaceuticals, Inc., priority 2003, dated 2009).
Counter-ions that a name gives are not always drawn. Like-named read-outs stand apart in the source and are kept apart here.

Key:
Topoisomerase I = target: T1, Topoisomerase I (Homo sapiens, UniProt P11387); test: Topoisomerase I activity assay (relaxation of supercoiled DNA, gel); conditions: FIG. 2
T1 sequence (P11387 1-765): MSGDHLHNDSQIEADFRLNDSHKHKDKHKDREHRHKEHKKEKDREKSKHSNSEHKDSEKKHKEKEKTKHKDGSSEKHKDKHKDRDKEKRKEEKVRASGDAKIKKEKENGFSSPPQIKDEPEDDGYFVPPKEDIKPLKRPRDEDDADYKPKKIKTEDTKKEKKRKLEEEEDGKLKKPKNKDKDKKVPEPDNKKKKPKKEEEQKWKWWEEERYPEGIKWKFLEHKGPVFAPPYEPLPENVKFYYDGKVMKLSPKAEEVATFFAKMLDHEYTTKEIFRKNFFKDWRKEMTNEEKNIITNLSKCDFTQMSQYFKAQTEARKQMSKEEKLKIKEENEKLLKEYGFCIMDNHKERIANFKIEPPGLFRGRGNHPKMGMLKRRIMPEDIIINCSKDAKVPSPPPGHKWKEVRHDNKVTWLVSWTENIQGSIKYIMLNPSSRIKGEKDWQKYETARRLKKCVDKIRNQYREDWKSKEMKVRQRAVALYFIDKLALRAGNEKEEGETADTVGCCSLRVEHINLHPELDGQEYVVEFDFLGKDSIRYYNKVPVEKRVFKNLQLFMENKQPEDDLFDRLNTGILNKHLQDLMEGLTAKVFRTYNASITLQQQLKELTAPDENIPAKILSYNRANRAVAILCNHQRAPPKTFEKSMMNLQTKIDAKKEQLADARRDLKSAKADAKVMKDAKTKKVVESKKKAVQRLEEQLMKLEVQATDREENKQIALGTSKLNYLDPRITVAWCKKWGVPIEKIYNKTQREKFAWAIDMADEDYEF

[1] = target: tyrosine kinase of Epidermal Growth Factor Receptor (Homo sapiens, UniProt P00533); conditions: Rewcastle et al. 1995; read-out: IC50 EGFR tyrosine kinase; cited from earlier work
[2] = target: T2, Human Type II Topoisomerase (p170 Form) (Homo sapiens, UniProt P11388); test: Photo-crosslinking of radiolabeled compound to Topoisomerase II; format: binding; conditions: 50 nM, 60 minutes, UV 254 nm; FIG. 3
T2 construct: purchased TopoGEN, Inc., Columbus, Ohio
Experimental: 30 Units (15 ul) Human Type II Topoisomerase (p170 Form) (from TopoGEN, Inc., Columbus, Ohio) was incubated with 50 nM radiolabeled Example 102 compound for 60 minutes at room temperature.
(Radiolabeled Example 102 compound stock is 16.67 uM, 60 Ci/mmol, 1 Ci/ml American Radiolabeled Chemicals, Inc., St. Louis, Mo. Samples were either UV irradiated (+) with a short wavelength UV Source (254 nm) for 10 minutes at a distance of 3.5 cm or not irradiated (−). 8 ul of 5× sample buffer (150 mM Tris, pH 6.8, 50% glycerol, 1% SDS, 50 mM dithiothreitol, 62 mg/ml bromophenol blue) was added to the samples and boiled for 5 minutes. The entire sample was then loaded onto a 6% Tris-Glycine SDS-gel (10 well, 1.5 mm thickness) (Invitrogen, Carlsbad, Calif.). The gel was stained with 1% Coomassie Brilliant Blue in 40% methanol, 7.5% acetic acid for 2 hours then de-stained in several changes of de-stainer (40% methanol, 7.5% acetic acid). The gel was then incubated in Amplify (Amersham, Piscataway, N.J.) for 30 minutes at room temperature and then dried down on Whatman filter paper at 80° C. for 2 hours on a gel dryer. The dried gel was put on Hyperfilm (Amersham) in a film cassette and placed at −80° C. for 5-7 days.

T-47D cells [3] = test: Caspase cascade activation (N-(Ac-DEVD)-N′-ethoxycarbonyl-R110 fluorogenic substrate) in T-47D cells; format: cell-based, Human; conditions: for Caspase activity Ratio T-47D (24 hr) / Caspase activity Ratio T-47D (48 hr): ratio of net RFU to control; for EC50: Homo sapiens, T47D
Topoisomerase II = Topoisomerase II (Homo sapiens, UniProt P11388); test: Topoisomerase II activity assay (relaxation of supercoiled DNA, gel); conditions: FIG. 1, Example 1 Compound at 100 μM
[4] = system: tubulin (Cytoskeleton #ML113, MAP-rich); test: Inhibition of tubulin polymerization (DAPI fluorescence); format: biochemical; conditions: 30 minutes preincubation, 30 minutes at 37° C.
Experimental: Lyophilized tubulin (Cytoskeleton #ML113, 1 mg, MAP-rich) was assayed for the effect of the test compound on tubulin polymerization as measured by change in fluorescence for 4′,6-diamidino-2-phenylindole (DAPI) (Barron, D. M. et al. Analytical Biochem., 2003, 315, 49-56.). 1 μl of serial dilutions of each test compound (from 100×DMSO stock) was added in 96 well plate format and preincubated for 30 minutes with 94 ul of the non-GTP supplemented tubulin supernatant. 5 μl of DAPI/GTP solution was added to initiate polymerization and incubated for 30 minutes at 37° C. Fluorescence was read with excitation 350 nm, emission wavelength 485 nm on a Tecan Spectraflour Plus. Polymerized tubulin (DMSO and with the tubulin stabilizer Taxol® (paclitaxel)) gives a higher DAPI fluorescence as compared to non-polymerized tubulin (vinblastine and colchicine used to determine baseline).

SW620 cells = test: Inhibition of cell proliferation (GI50, CellTiter-Glo); format: cell-based; conditions: Homo sapiens, SW-620; 48 h incubation
Experimental: (§1) T-47D, DLD, H1299, MX-1 and SW620 cells were grown and harvested as in Example 143. […] An aliquot of 45 μL of cells was added to a well of a 96-well microtiter plate containing 5 μL of a 10% DMSO in RPMI-1640 media solution without compound as the control sample for maximal cell proliferation (LMax). The samples were mixed by agitation and then incubated at 37° C. for 48 h in a 5% CO2-95% humidity incubator. After incubation, the samples were removed from the incubator and 25 μL of CellTiter-Glo™ reagent (Promega) was added. The samples were mixed by agitation and incubated at room temperature for 10-15 min. Plates were then read using a luminescent plate reader (Model SPECTRAfluor Plus, Tecan) to give Ltest values.
(§2) The samples were mixed by agitation and then incubated at 37° C. for 0.5 h in a 5% CO2-95% humidity incubator. After incubation, the samples were removed from the incubator and 25 μL of CellTiter-Glo™ reagent (Promega) was added. The samples were mixed by agitation and incubated at […] 10-15 min at room temperature in a 5% CO2-95% humidity incubator. Fluorescence was read as above, (LStart) defining luminescence for initial cell number used as baseline in GI50 determinations.

MX-1 cells = test: as above; format: cell-based; conditions: Homo sapiens, MX1; 48 h incubation
Experimental: as §1, §2

H1299 cells = test: as above; format: cell-based; conditions: Homo sapiens, NCI-H1299; 48 h incubation
Experimental: as §1, §2

DLD cells = test: as above; format: cell-based; conditions: Homo sapiens; 48 h incubation
Experimental: as §1, §2

T-47D cells [5] = test: as above; format: cell-based; conditions: Homo sapiens, T47D; 48 h incubation
Experimental: as §1, §2

tyrosine kinase of Epidermal Growth Factor Receptor, sequence (P00533 25-1210): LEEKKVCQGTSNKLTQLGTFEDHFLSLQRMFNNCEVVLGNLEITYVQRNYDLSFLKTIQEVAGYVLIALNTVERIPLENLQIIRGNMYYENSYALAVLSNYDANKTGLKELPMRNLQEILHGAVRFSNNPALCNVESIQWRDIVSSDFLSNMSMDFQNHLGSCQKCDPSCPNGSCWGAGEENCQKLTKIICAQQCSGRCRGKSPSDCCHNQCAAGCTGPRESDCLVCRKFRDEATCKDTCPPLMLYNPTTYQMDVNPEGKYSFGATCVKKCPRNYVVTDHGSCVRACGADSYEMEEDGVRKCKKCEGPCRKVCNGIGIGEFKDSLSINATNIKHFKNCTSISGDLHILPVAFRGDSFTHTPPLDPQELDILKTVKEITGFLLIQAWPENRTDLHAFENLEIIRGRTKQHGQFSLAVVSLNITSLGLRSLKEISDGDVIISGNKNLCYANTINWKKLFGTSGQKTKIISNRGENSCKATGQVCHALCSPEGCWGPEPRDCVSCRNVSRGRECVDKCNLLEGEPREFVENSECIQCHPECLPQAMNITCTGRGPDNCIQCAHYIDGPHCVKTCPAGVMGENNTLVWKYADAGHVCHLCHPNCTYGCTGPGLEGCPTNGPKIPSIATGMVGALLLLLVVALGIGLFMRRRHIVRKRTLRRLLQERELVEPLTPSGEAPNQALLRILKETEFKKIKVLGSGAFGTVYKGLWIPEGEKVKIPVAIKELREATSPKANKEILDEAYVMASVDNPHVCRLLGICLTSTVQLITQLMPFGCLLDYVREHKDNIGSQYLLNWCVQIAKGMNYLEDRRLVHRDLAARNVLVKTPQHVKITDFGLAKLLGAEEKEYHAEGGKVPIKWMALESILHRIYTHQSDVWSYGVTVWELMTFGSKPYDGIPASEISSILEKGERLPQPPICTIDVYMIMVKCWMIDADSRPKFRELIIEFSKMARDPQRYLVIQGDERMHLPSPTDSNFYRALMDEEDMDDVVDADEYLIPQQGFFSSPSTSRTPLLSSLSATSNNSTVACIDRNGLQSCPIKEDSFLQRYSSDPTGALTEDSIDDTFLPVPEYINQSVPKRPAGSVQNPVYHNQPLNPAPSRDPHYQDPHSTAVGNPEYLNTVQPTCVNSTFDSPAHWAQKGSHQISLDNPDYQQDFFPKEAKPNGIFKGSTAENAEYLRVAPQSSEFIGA
Topoisomerase II, sequence (P11388 whole entry): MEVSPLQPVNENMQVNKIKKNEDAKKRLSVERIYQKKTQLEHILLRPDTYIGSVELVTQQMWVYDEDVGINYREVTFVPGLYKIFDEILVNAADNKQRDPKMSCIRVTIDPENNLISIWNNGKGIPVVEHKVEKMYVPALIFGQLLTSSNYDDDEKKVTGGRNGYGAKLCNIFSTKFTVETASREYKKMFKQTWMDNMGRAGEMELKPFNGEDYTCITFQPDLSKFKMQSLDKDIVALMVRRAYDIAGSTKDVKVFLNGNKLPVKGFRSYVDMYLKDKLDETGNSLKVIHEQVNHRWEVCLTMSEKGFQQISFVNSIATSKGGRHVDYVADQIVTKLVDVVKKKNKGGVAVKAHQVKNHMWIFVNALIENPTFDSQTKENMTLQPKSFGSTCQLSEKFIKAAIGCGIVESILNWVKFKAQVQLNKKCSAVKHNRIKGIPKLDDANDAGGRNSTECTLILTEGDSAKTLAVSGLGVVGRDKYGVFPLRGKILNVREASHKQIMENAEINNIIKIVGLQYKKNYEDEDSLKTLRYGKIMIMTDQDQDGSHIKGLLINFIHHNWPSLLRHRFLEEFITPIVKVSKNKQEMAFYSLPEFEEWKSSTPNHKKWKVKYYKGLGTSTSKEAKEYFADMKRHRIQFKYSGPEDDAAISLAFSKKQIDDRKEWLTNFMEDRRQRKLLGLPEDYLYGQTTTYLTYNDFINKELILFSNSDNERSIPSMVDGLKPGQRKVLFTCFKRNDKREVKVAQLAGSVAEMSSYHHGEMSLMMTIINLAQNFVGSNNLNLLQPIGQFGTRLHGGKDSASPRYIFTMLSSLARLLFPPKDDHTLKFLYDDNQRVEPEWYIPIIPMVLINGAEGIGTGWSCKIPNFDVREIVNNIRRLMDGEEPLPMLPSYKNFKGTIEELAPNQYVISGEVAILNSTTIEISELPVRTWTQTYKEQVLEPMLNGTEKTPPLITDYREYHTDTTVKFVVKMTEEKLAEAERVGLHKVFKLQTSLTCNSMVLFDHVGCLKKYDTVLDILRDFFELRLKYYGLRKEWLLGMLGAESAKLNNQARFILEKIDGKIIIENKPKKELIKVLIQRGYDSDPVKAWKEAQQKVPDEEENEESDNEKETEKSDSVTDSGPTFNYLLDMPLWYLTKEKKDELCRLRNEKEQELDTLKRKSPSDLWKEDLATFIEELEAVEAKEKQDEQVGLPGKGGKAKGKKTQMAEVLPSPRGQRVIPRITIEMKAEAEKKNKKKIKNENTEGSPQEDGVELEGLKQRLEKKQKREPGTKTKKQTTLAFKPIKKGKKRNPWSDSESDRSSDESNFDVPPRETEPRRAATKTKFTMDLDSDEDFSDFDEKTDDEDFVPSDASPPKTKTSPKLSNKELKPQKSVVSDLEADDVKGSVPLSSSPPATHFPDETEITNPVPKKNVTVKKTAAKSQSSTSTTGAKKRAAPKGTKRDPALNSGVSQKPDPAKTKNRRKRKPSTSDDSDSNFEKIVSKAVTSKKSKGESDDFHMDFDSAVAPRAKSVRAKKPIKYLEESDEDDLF
T2 sequence (P11388 whole entry): as above

Compound	Caspase activity Ratio T-47D (24 hr) (T-47D cells [3]; T-47D, 24 hr)	IC50 [4] [µM]	other results
COc1cc([C@@H]2c3cc4c(cc3[C@@H](O[C@@H]3O[C@@H]5CO[C@@H](C)O[C@H]5[C@H](O)[C@H]3O)[C@H]3COC(=O)[C@H]23)OCO4)cc(OC)c1O [VP-16, etoposide, reference compound]	–	–	Effect on topoisomerase I-dependent relaxation of supercoiled DNA (Topoisomerase I): no apparent effect
CN(c1ccccc1)c1ncnc2ccccc12 [R1═Me, R2═R3═R4═H]	–	–	IC50 [1]: > 100 µM
Radiolabeled (4-Azido-phenyl)-(2-methyl-quinazolin-4-yl)-methyl-amine [Radiolabeled Example 102 compound]	–	–	Binding to Topoisomerase II (UV crosslinking) [2]: binds sufficiently well to Topoisomerase II to crosslink to the enzyme when photoactivated
COc1ccc(N(C)c2nc(Cl)nc3ccccc23)cc1 [Example 1]	8.7	< 0.5	Effect on topoisomerase I-dependent relaxation of supercoiled DNA (Topoisomerase I): no apparent effect; Inhibition of topoisomerase II-dependent relaxation of supercoiled DNA (Topoisomerase II): inhibition of DNA relaxation is substantial
COc1ccc(N(C)c2nc(C)nc3ccccc23)cc1 [Example 72, (4-Methoxy-phenyl)-methyl-(2-methyl-quinazolin-4-yl)-amine hydrochloride]	9.0	< 1	Caspase activity Ratio T-47D (48 hr) (T-47D cells [3]; T-47D): 7.4
COc1ccc(N(C)c2nc(Cl)nc3cc(OC)c(OC)cc23)cc1 [Example 20, (2-Chloro-6,7-dimethoxyquinazolin-4-yl)-(4-methoxy-phenyl)-methyl-amine]	13.1	3	–
COc1ccc(N(C)c2ncnc3ccccc23)cc1 [Example 34, (4-Methoxy-phenyl)-methyl-quinazolin-4-yl-amine]	7.5	1	EC50 (T-47D cells [3]; T-47D, 24 hr, read-out: Caspase potency EC50 (nM) T-47D (24 hr)): 7 nM; EC50 (T-47D cells [3]; Table III, time not printed (values repeat Table I 24 hr or 48 hr), read-out: Caspase activation (EC50 nM)): 7 nM; GI50 (SW620 cells): 55 nM; GI50 (MX-1 cells): 73 nM; GI50 (H1299 cells): 59 nM; GI50 (DLD cells): 76 nM; GI50 (T-47D cells [5]): 503 nM
COc1ccc(N(C)c2ncnc3c2CCCC3)cc1 [Example 25]	–	2	Caspase activity Ratio T-47D (48 hr) (T-47D cells [3]; T-47D): 5.8
CN(c1ccccc1)c1nc(Cl)nc2ccccc12 [Example 6, (2-Chloro-quinazolin-4-yl)-phenyl-methyl-amine]	6.7	4	–
COc1ccc(OC)c(N(C)c2nc(Cl)nc3ccccc23)c1 [Example 42, (2-Chloro-quinazolin-4-yl)-(2,5-dimethoxy-phenyl)-methyl-amine]	8.6	5	Caspase activity Ratio T-47D (48 hr) (T-47D cells [3]; T-47D): 14.6
COc1ccc(N(C)c2nc(Cl)nc3ccccc23)cn1 [Example 36, (2-Chloro-quinazolin-4-yl)-(6-methoxy-pyridin-3-yl)-methyl-amine]	6.7	< 1	–
